According to patent US20050101530A1, “Cellular virus receptors and methods of use” (Topigen Pharmaceutique, Inc., priority 2001, published 2005):

Key:
[1] = target: human chemokine receptor CCR3 (human) (UniProt P51677); assay: cell-based or functional assay
RSV A2 = assay: RSV plaque formation (infectivity) inhibition test in Hep-2 cell cultures; format: cell-based, respiratory syncytial virus (RSV) A2 strain; conditions: Hep-2 cells
Procedure: The A2 strain of RSV was purchased from ATCC. The RSV was inoculated into a sub-confluent Hep-2 cell monolayer. […] The contents of the flask was resuspended in 1 ml aliquots, quick-frozen with alcohol/dry ice, and stored at −80° C. The virus titer of RSV was assessed by quantitative plaque forming assay and maintained titers in the range of 10^6 to 10^8pfu/ml for more than 6 months at −70° C.
Hep2 cells are known for being a permissive target cell for RSV infection and these cells express several chemokine receptors. Serial rounds of infections were performed with Hep-2 cells at different MOIs, ranging from 1:5 to 1:0.1. Hep-2 cells were systematically infected at these ranges of MOI. Subsequent experimental infection of Hep-2 cells with RSV were realized at a MOI 1:0.1. We investigated the role of the chemokine receptor CCR3 in supporting RSV infection. Immunoprecipitation technique followed by analysis of the immunoprecipitated complexes by SDS-PAGE were performed in order to gain insight into the physical contact between the RSV-G protein and the CCR3 receptor. Immunoprecipitation of the immune complexes will allow to assess, using SDS-PAGE and a specific antibody for the RSV-G protein, whether or not the contact of the virus glycoprotein with the cell receptor occurred. […] We noticed here that although the monoclonal antibody to RSV-G protein was diluted to 1:5000, it still cross reacted with a determinant of 43-45 kDa in all non infected or control cell types used in this work (see FIG. 1 lane 2). However, keeping in mind that all cell extracts were normalized to the same quantity of proteins before being loaded into SDS-PAGE. Therefore, the high intensity of the band, recognized by anti-RSV-G, and corresponding to the RSV-G protein precursor allowed us to differentiate between real infection and the background due to cross reactivity. We assessed if the CCR3 receptor was involved in virus infectivity of epithelial cells by performing RSV infectivity inhibition tests as described above. […]

RSV = RSV infection of CCR3 transfected GHOST cells, immunostaining; format: cell-based, respiratory syncytial virus (RSV) A2 strain; conditions: Eotaxin 1 μg/ml, anti-RSV F-protein immunostaining, FIG. 3B
Procedure: (§1) A549, Hep2, or GHOST cells were infected by RSV A2 strain at different multiplicity of infection (MOI). The results presented in this work were performed at a MOI of 1:0.1. The MOI 1:0.1 is the cut off of permissive and restrictive infection. The cells expressing the chemokine receptor CCR3 (Ghost-CCR3+, Hep2 and A549) were found permissive at a MOI 1:0.1 and the chemokine receptor CCR3 is considered as the high affinity coreceptor for RSV infection. Infection experiments undertaken with GHOST cells expressing only one of the following chemokine receptors the CCR1, CCR2b, CCR4, CCR5, CCR8 or CXCR4, were performed at a MOI of 1:2. These GHOST cells (CCR1, CCR-2b, CCR-4, CCR-5, CCR-8 and CXCR4), were not infected at a MOls of 1:0.1 and 1:1. The chemokine receptors CCR1, CCR2, CCR4, CCR5, CCR8 were considered subsequently as low affinity coreceptors in regard to RSV infection. […] These cells were not infected by RSV at a MOI 1:5 and lesser (1:4, 1:3, 1:2, 1:1 and 1:0.1).
We have also assessed whether CCR3 transfected GHOST cells support RSV infection and produce infectious virus. We performed this by using the same methods as described in FIG. 3. […]
After fixing the cells in 4% paraformaldehyde in phosphate buffered saline (PBS), the presence of virus was detected by immunostaining. […]

[2] = target: T1, RSV-G protein and CCR3 receptor (Homo sapiens, UniProt P51677); assay: Anti-CCR3 immunoprecipitation and anti-RSV-G Western blot of RSV-infected Hep2 cells; format: cell-based; conditions: Hep2 cells infected by RSV in the presence of 2 μg/ml of Eotaxin; FIG. 1 lane 3
T1 construct: physical contact between the CCR3 receptor and the RSV-G protein in Hep-2 cells; endogenous in cells; host or cells: Hep-2 epithelial cells (ATCC) infected with RSV A2 (ATCC)
T1 sequence (P51677 1-355): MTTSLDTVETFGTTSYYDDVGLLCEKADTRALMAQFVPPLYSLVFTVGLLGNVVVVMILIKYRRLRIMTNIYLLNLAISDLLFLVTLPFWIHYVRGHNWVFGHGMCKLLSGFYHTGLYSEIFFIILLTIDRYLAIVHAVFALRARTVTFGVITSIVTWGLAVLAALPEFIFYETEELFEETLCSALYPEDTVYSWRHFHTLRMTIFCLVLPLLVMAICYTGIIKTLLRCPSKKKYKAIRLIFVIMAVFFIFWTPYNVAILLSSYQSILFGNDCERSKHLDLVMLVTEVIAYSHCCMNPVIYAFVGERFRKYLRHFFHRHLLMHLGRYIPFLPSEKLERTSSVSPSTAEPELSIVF
Procedure: as §1
Cells were infected by RSV for 2 hr incubation in the presence or the absence of 2 μg/ml of Eotaxin, or of PBS solution and cultured for 3 days. […]
Hep2 cells are known for being a permissive target cell for RSV infection and these cells express several chemokine receptors. […] However, keeping in mind that all cell extracts were normalized to the same quantity of proteins before being loaded into SDS-PAGE. […]

Eotaxin (from UniProt P51671 24-97) (ligand)
percent inhibition of virus plaques formation (RSV A2 on Hep-2 cells) [1]: 80%

Eotaxin
percent inhibition of virus plaques formation (RSV A2; Eotaxin greater or equal to 0.5 μg/ml, compared to PBS-treated cultures, three days post infection): 80%
RSV plaques as compared with PBS controls (RSV A2; each concentration of Eotaxin tested (0.01 to 1.0 μg/ml), p<0.05, Student's t-test): statistically fewer RSV plaques
timing of inhibition of RSV infection (FIG. 2) (RSV A2; eotaxin added to culture medium, during virus adsorption): inhibited RSV infection most effectively early in infection
RSV infection of GHOST/CCR3 cells by immunostaining (RSV): inhibits infection by RSV
RSV infection of GHOST/CCR3 cells by immunostaining (RSV; listed as eotaxin): inhibits cellular infection by RSV
detection of RSV-G protein by RSV-G mAb in anti-CCR3 immunoprecipitated extracts [2]: failed to recognize the RSV-G protein

Rat anti-human CCR3 (clone 61828.111) (antibody)
decrease in RSV infection of CCR3+ GHOST cells, immunostaining [1]: 80%
